Results as given in patent publication US20230339952A1, “MACROCYCLIC HETEROCYCLES AND USES THEREOF” (Kumquat Biosciences Inc., priority 2022, published 2023).
Where two headings read alike, the source gives them in different places.

Assays:
[1] = molecular target: SOS1 (Homo sapiens (Human), UniProt Q07889); assay: Ras-SOS interaction assay (HTRF), K-Ras G13D utilized; type: binding; details: K-Ras G13D
[2] = system: NCI-H1975 (ATCC CRL-5908) cell line comprising an EGFR T790M L858R double mutation; assay: EGFR-SOS cellular inhibition assay (CellTiter-Glo cell proliferation); type: cell-based; details: Homo sapiens, 120 h; NCI-H1975 cell proliferation, approximately 5 days; read-out: H1975 IC50
Protocol: A CellTiter-Glo (CTG) luminescent based assay (Promega) is used to assess growth of the cells, as a measurement of the ability of the compounds herein to inhibit EGFR signaling in the cells. […] The day after plating, cells are treated with a dilution series (e.g., a 9 point 3-fold dilution series) of the compounds herein (e.g., approximately 125 μL final volume per well).

Chain of SOS1 (Q07889 564-1049): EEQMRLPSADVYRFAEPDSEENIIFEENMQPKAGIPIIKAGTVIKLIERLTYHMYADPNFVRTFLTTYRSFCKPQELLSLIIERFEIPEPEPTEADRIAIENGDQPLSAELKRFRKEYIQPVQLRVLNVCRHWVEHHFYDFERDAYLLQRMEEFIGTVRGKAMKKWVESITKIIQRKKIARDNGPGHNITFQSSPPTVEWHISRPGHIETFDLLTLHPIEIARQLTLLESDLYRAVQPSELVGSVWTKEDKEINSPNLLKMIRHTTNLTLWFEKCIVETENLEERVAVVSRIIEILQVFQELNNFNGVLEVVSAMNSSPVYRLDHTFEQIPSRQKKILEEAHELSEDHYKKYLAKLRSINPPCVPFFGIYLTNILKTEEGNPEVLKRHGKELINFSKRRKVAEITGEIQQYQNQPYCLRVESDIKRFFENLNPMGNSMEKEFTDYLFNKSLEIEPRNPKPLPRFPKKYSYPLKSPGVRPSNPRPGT

| IC50 ([1]; read-out: SOS1 IC50) [µM] | IC50 [2] [µM] | IC50 ([1]; read-out: IC50 value against SOS1) [µM] | Compound |
| --- | --- | --- | --- |
| < 0.1 | < 1 |  | C[C@H]1Nc2ncnc3c2cc(C2CCS(=O)(=O)CC2)c(=O)n3Cc2cn(nn2)CCCCN2CCC(CC2)C(F)(F)c2cccc1c2 [Compound 40, (5R,Z)-3^6-(1,1-dioxidotetrahydro-2H-thiopyran-4-yl)-7,7-difluoro-5-methyl-3^7,3^8-dihydro-1^1H-4-aza-3(8,4)-pyrido[2,3-d]pyrimidina-8(4,1)-piperidina-1(4,1)-triazola-6(1,3)-benzenacyclododecaphan-3^7-one] |
| < 0.1 | < 1 |  | C[C@H]1Nc2ncnc3c2cc(C2CCS(=O)(=O)CC2)c(=O)n3CCCCCCN2CCC(CC2)CC(F)(F)c2cccc1c2F [Compound 156, (3R)-1^6-(1,1-dioxidothiomorpholino)-4^2,5,5-trifluoro-3-methyl-1^7,1^8-dihydro-2-aza-1(4,8)-pyrido[2,3-d]pyrimidina-7(4,1)-piperidina-4(1,3)-benzenacyclotridecaphan-1^7-one] |
| < 0.1 | < 1 |  | C[C@H]1Nc2ncnc3c2cc(C2CCS(=O)(=O)CC2)c(=O)n3CCCOCCCCN2CCC(CC2)C(F)(F)c2cccc1c2F [Compound 203, (4R)-6^6-(1,1-dioxidotetrahydro-2H-thiopyran-4-yl)-3^2,2,2-trifluoro-4-methyl-6^7,6^8-dihydro-10-oxa-5-aza-6(4,8)-pyrido[2,3-d]pyrimidina-1(4,1)-piperidina-3(1,3)-benzenacyclotetradecaphan-6^7-one] |
| < 0.1 | < 1 |  | C[C@H]1Nc2ncnc3c2cc(C2(C#N)CC2)c(=O)n3CCC/C=C/CN2CCC(CC2)CC(F)(F)c2cccc1c2F [Compound 89, 1-((3R,E)-4^2,5,5-trifluoro-3-methyl-1^7-oxo-1^7,1^8-dihydro-2-aza-1(4,8)-pyrido[2,3-d]pyrimidina-7(4,1)-piperidina-4(1,3)-benzenacyclotridecaphan-9-en-1^6-yl)cyclopropane-1-carbonitrile] |

Second part, the compound before the results:

| Compound | IC50 ([1]; read-out: SOS1 IC50) [µM] | IC50 [2] [µM] | IC50 ([1]; read-out: IC50 value against SOS1) [µM] |
| --- | --- | --- | --- |
| CC(C)N1CCN(c2cc3c4ncnc3n(c2=O)CCCCCCCN2CCC(CC2)C(F)(F)c2cccc(c2F)[C@@H](C)N4)CC1 [Compound 21, (4R)-3^2,2,2-trifluoro-6^6-(4-isopropylpiperazin-1-yl)-4-methyl-6^7,6^8-dihydro-5-aza-6(4,8)-pyrido[2,3-d]pyrimidina-1(4,1)-piperidina-3(1,3)-benzenacyclotridecaphan-6^7-one] | < 0.1 | < 1 |  |
| C[C@H]1Nc2ncnc3c2cc(N2CCS(=O)(=O)CC2)c(=O)n3CCCOCCCCN2CCC(CC2)C(F)(F)c2cccc1c2 [Compound 186, (4R)-6^6-(1,1-dioxidothiomorpholino)-2,2-difluoro-4-methyl-6^7,6^8-dihydro-10-oxa-5-aza-6(4,8)-pyrido[2,3-d]pyrimidina-1(4,1)-piperidina-3(1,3)-benzenacyclotetradecaphan-6^7-one] | < 0.1 | < 1 |  |
| COc1cc2nc(C)nc3c2cc1OCCOCCOCCOCCOCCNCc1ccc(F)cc1C1=CC=C(S1)C(C)N3 (centres unmarked) [Compound 138, 1^5-fluoro-5^7-methoxy-5^2,3-dimethyl-6,9,12,15,18-pentaoxa-4,21-diaza-5(4,6)-quinazolina-2(2,5)-thiophena-1(1,2)-benzenacyclodocosaphane] | < 0.1 | < 1 | < 0.05 |
| CC(C)N1CCN(c2cc3c4ncnc3n(c2=O)CCCCCCN2CCC(CC2)CC(F)(F)c2cccc(c2)[C@@H](C)N4)CC1 [Compound 50, (3R)-5,5-difluoro-1^6-(4-isopropylpiperazin-1-yl)-3-methyl-1^7,1^8-dihydro-2-aza-1(4,8)-pyrido[2,3-d]pyrimidina-7(4,1)-piperidina-4(1,3)-benzenacyclotridecaphan-1^7-one] | < 0.1 | < 1 |  |
